Measured values taken from the supplement of paper PMC10883282.
± gives the standard deviation of the averaged measurements.

Test system: SW982
Test: relative viability vs DMSO control (72 h) (fraction); higher = more viable cells
Summary of the method: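 Sarcoma cell lines went into 384-well plates at densities chosen to reach 80–90% confluence. After 24 h, each well received 2.5 µl of serially diluted compound, with source plates running from 10 mM to 0.0002 mM, and the plates were kept 72 h at 37 °C, 5% CO2, alongside 0.1% DMSO vehicle and a 5 µM positive control. Relative viability was derived from ATPLite readings as percent growth and averaged over up to triplicate wells. The data were then rescaled so that 1 stands for full and 0 for none.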

| SMILES | relative viability (0.00017 µM) | relative viability (0.00051 µM) | relative viability (0.00152 µM) | relative viability (0.00457 µM) | relative viability (0.01372 µM) | relative viability (0.04115 µM) | relative viability (0.1235 µM) | relative viability (0.3704 µM) | relative viability (1.111 µM) | relative viability (3.333 µM) | relative viability (10 µM) |
| --- | --- | --- | --- | --- | --- | --- | --- | --- | --- | --- | --- |
| Cc1cc(C)c(/C=C2\C(=O)Nc3ccccc32)[nH]1 [Semaxanib] | 1.02 ± 0.03 | 1.02 ± 0.031 | 0.997 ± 0.022 | 0.9929 ± 0.0051 | 0.968 ± 0.011 | 0.96 ± 0.029 | 0.947 ± 0.03 | 0.933 ± 0.011 | 0.904 ± 0.02 | 0.879 ± 0.028 | 0.821 ± 0.041 |
| O=C(Nc1cnn2ccc(N3CCC[C@@H]3c3cc(F)ccc3F)nc12)N1CC[C@H](O)C1 [Larotrectinib] | 1.02 ± 0.015 | 1 ± 0.022 | 1.01 ± 0.036 | 1.07 ± 0.026 | 1.07 ± 0.031 | 1.058 ± 0.0089 | 1.05 ± 0.025 | 1.02 ± 0.019 | 1.05 ± 0.027 | 1.05 ± 0.032 | 1.01 ± 0.02 |
| C=CC(=O)N1CCC[C@@H](n2nc(-c3ccc(Oc4ccccc4)cc3)c3c(N)ncnc32)C1 [Ibrutinib] | 1.02 ± 0.016 | 1.06 ± 0.039 | 1.07 ± 0.011 | 1.05 ± 0.035 | 1.03 ± 0.033 | 1.05 ± 0.02 | 1.05 ± 0.035 | 1.06 ± 0.051 | 1.08 ± 0.036 | 1.04 ± 0.027 | 0.845 ± 0.044 |
| CC(C)N1CCN(Cc2cnc(-c3cc(-c4cccc5[nH]ccc45)cc4[nH]ncc34)o2)CC1 [Nemiralisib] | 0.946 ± 0.032 | 0.961 ± 0.044 | 0.918 ± 0.042 | 0.923 ± 0.038 | 0.954 ± 0.012 | 0.93 ± 0.061 | 0.916 ± 0.033 | 0.89 ± 0.056 | 0.805 ± 0.039 | 0.654 ± 0.032 | 0.275 ± 0.014 |
| CN1CCN(c2ccc3nc(-c4c(N)c5c(F)cccc5[nH]c4=O)[nH]c3c2)CC1 [Dovitinib] | 1.02 ± 0.018 | 1.03 ± 0.041 | 1.01 ± 0.015 | 0.98 ± 0.027 | 1.01 ± 0.059 | 1.01 ± 0.059 | 0.94 ± 0.036 | 0.793 ± 0.012 | 0.483 ± 0.015 | 0.237 ± 0.022 | 0.0627 ± 0.033 |
| COc1c(OCCCN2CCOCC2)ccc2c1N=C(NC(=O)c1cnc(N)nc1)N1CCN=C21 [Copanlisib] | 1.04 ± 0.024 | 1.02 ± 0.022 | 1.04 ± 0.043 | 0.881 ± 0.016 | 0.797 ± 0.032 | 0.704 ± 0.029 | 0.529 ± 0.01 | 0.391 ± 0.019 | 0.213 ± 0.011 | 0.177 ± 0.0066 | 0.177 ± 0.0061 |
| CNC(=O)c1ccc(-c2cnc3ncc(Cc4ccc5ncccc5c4)n3n2)cc1F [Capmatinib] | 1.04 ± 0.023 | 1.07 ± 0.045 | 1.07 ± 0.076 | 1.042 ± 0.0035 | 1.06 ± 0.067 | 1.03 ± 0.025 | 1.04 ± 0.028 | 1.06 ± 0.045 | 1.07 ± 0.06 | 1.06 ± 0.057 | 1.02 ± 0.024 |
| Cn1cc(-c2cc3c(N4CCN(c5ncc([C@@](C)(N)c6ccc(F)cc6)cn5)CC4)ncnn3c2)cn1 [Avapritinib] | 0.99 ± 0.026 | 0.956 ± 0.05 | 0.957 ± 0.093 | 0.93 ± 0.07 | 0.964 ± 0.061 | 0.962 ± 0.081 | 0.902 ± 0.033 | 0.928 ± 0.025 | 0.905 ± 0.044 | 0.894 ± 0.033 | 0.8071 ± 0.0062 |
| CCCS(=O)(=O)Nc1ccc(F)c(C(=O)c2c[nH]c3ncc(-c4ccc(Cl)cc4)cc23)c1F [Vemurafenib] | 1.04 ± 0.063 | 1.08 ± 0.048 | 1.05 ± 0.027 | 1.03 ± 0.029 | 1.06 ± 0.053 | 1.02 ± 0.045 | 0.9867 ± 0.0019 | 0.988 ± 0.039 | 1.01 ± 0.029 | 0.794 ± 0.035 | 0.532 ± 0.02 |
| CC1(C)CNc2cc(NC(=O)c3cccnc3NCc3ccncc3)ccc21 [Motesanib] | 0.9792 ± 0.0014 | 0.972 ± 0.029 | 0.964 ± 0.039 | 0.964 ± 0.032 | 0.954 ± 0.013 | 0.933 ± 0.046 | 0.978 ± 0.042 | 0.965 ± 0.013 | 0.969 ± 0.033 | 0.9654 ± 0.0093 | 0.908 ± 0.086 |
| C=CC(=O)Nc1cccc(Oc2nc(Nc3ccc(N4CCN(C)CC4)cc3)nc3ccsc23)c1 [Olmutinib] | 1.01 ± 0.024 | 1.01 ± 0.02 | 0.98 ± 0.01 | 1 ± 0.028 | 1.02 ± 0.016 | 1.01 ± 0.025 | 1 ± 0.011 | 0.969 ± 0.077 | 0.822 ± 0.065 | 0.663 ± 0.029 | 0.317 ± 0.033 |
| COc1cc2nccc(Oc3ccc(NC(=O)Nc4cc(C)on4)c(Cl)c3)c2cc1OC [Tivozanib] | 1.06 ± 0.039 | 1.07 ± 0.048 | 1.06 ± 0.021 | 1.05 ± 0.037 | 1.08 ± 0.038 | 1.07 ± 0.033 | 1.08 ± 0.017 | 1.08 ± 0.046 | 1.07 ± 0.058 | 0.985 ± 0.029 | 0.571 ± 0.021 |
| CNC(=O)c1cc(Oc2ccc(NC(=O)Nc3ccc(Cl)c(C(F)(F)F)c3)c(F)c2)ccn1 [Regorafenib] | 1.03 ± 0.017 | 1.09 ± 0.057 | 1.08 ± 0.043 | 1.1 ± 0.052 | 1.06 ± 0.032 | 1.08 ± 0.057 | 1.09 ± 0.044 | 1.09 ± 0.056 | 0.997 ± 0.037 | 0.8827 ± 0.0051 | 0.795 ± 0.0056 |
| Cc1ccc(F)c(NC(=O)Nc2ccc(-c3cccc4[nH]nc(N)c34)cc2)c1 [Linifanib] | 1.03 ± 0.027 | 1.08 ± 0.024 | 1.05 ± 0.035 | 1.07 ± 0.032 | 1.03 ± 0.021 | 1.06 ± 0.043 | 1.06 ± 0.019 | 1.08 ± 0.04 | 1.1 ± 0.036 | 1.12 ± 0.015 | 1.12 ± 0.04 |
| Cc1cnc(Nc2ccc(OCCN3CCCC3)cc2)nc1Nc1cccc(S(=O)(=O)NC(C)(C)C)c1 [Fedratinib] | 1.03 ± 0.012 | 1.03 ± 0.033 | 1.07 ± 0.021 | 1.07 ± 0.016 | 1.088 ± 0.0018 | 1.06 ± 0.024 | 0.846 ± 0.052 | 0.394 ± 0.013 | 0.161 ± 0.0068 | 0.0074 ± 0.0013 | 0.00487 ± 0.00038 |
| C=CC(=O)N1CCC([C@@H]2CCNc3c(C(N)=O)c(-c4ccc(Oc5ccccc5)cc4)nn32)CC1 [Zanubrutinib] | 0.96 ± 0.026 | 0.968 ± 0.017 | 0.944 ± 0.03 | 0.958 ± 0.013 | 0.949 ± 0.027 | 0.96 ± 0.017 | 0.909 ± 0.019 | 0.893 ± 0.052 | 0.827 ± 0.025 | 0.771 ± 0.04 | 0.731 ± 0.045 |
| CN1CCC(COc2cnc(-c3cccc(Cn4nc(-c5cccc(C#N)c5)ccc4=O)c3)nc2)CC1 [Tepotinib] | 1.02 ± 0.025 | 1.07 ± 0.027 | 1.051 ± 0.0014 | 1.07 ± 0.029 | 1.04 ± 0.019 | 1.06 ± 0.019 | 1.062 ± 0.0073 | 1.03 ± 0.035 | 1.04 ± 0.059 | 1.02 ± 0.027 | 0.777 ± 0.025 |
| Cc1nc(NC(=O)N2CCC[C@H]2C(N)=O)sc1-c1ccnc(C(C)(C)C(F)(F)F)c1 [Alpelisib] | 0.989 ± 0.04 | 0.929 ± 0.033 | 0.98 ± 0.021 | 0.95 ± 0.02 | 0.997 ± 0.014 | 0.959 ± 0.055 | 0.964 ± 0.031 | 0.927 ± 0.052 | 0.845 ± 0.026 | 0.725 ± 0.022 | 0.596 ± 0.026 |
